± gives the uncertainty stated by the source.
Test: xn = mol fraction of the nth substance listed

Nc1ccccc1Cl + Clc1cccc(Cl)c1
viscosity [mPa·s], 101 kPa
Conditions	x1 = 0.1088	x1 = 0.2155	x1 = 0.3202	x1 = 0.4228	x1 = 0.5235	x1 = 0.6224	x1 = 0.7194	x1 = 0.8147	x1 = 0.9082
303.15 K	1.108 ± 0.023	1.292 ± 0.027	1.499 ± 0.031	1.732 ± 0.036	1.994 ± 0.042	2.288 ± 0.048	2.615 ± 0.054	2.979 ± 0.062	3.382 ± 0.07
308.15 K	1.043 ± 0.022	1.211 ± 0.025	1.398 ± 0.029	1.607 ± 0.034	1.84 ± 0.038	2.098 ± 0.044	2.382 ± 0.05	2.695 ± 0.056	3.038 ± 0.063
313.15 K	0.9857 ± 0.021	1.138 ± 0.024	1.308 ± 0.027	1.496 ± 0.031	1.703 ± 0.036	1.931 ± 0.04	2.179 ± 0.045	2.45 ± 0.051	2.743 ± 0.057
318.15 K	0.9257 ± 0.019	1.066 ± 0.022	1.222 ± 0.025	1.392 ± 0.029	1.579 ± 0.033	1.781 ± 0.037	2.001 ± 0.042	2.237 ± 0.047	2.491 ± 0.052

O=S(=O)(Cl)Cl + c1ccccc1
298.15 K, 101 kPa
Conditions	viscosity [mPa·s]
x1 = 0.176	0.6172 ± 0.016
x1 = 0.43	0.6463 ± 0.017
x1 = 0.699	0.6673 ± 0.017
x1 = 0.734	0.6691 ± 0.017
x1 = 0.845	0.6757 ± 0.017

Cc1ccc(O)cc1 + CN(C)C=O
viscosity [mPa·s], 101 kPa
Conditions	303.15 K	308.15 K	313.15 K	318.15 K
x1 = 0.0758	0.908 ± 0.007	0.787 ± 0.006	0.769 ± 0.006	0.732 ± 0.006
x1 = 0.1553	1.098 ± 0.009	0.988 ± 0.008	0.913 ± 0.007	0.845 ± 0.007
x1 = 0.2404	1.444 ± 0.011	1.208 ± 0.01	–	1.087 ± 0.009
x1 = 0.3298	1.832 ± 0.014	1.611 ± 0.013	1.465 ± 0.011	1.339 ± 0.011
x1 = 0.4247	2.452 ± 0.019	2.165 ± 0.017	1.952 ± 0.015	1.755 ± 0.014
x1 = 0.5155	–	2.886 ± 0.022	–	–
x1 = 0.5255	3.351 ± 0.026	–	–	2.273 ± 0.017
x1 = 0.5256	–	–	2.562 ± 0.02	–
x1 = 0.6327	4.534 ± 0.034	3.905 ± 0.029	3.375 ± 0.025	2.954 ± 0.022
x1 = 0.7472	6.256 ± 0.045	5.298 ± 0.039	4.489 ± 0.033	3.852 ± 0.029
x1 = 0.8692	7.994 ± 0.056	6.386 ± 0.046	5.777 ± 0.042	4.485 ± 0.034

CCCCn1cc[n+](C)c1.F[B-](F)(F)F + CC#N
Conditions	viscosity [mPa·s]
298.15 K, 101 kPa, x2 = 0.0956	79.7 ± 16

Cc1ccc(O)cc1 + CCCCN(CCCC)CCCC
298.16 K, 101 kPa
Conditions	viscosity [mPa·s]
x1 = 0.5103	5.579 ± 0.096
x1 = 0.5404	5.375 ± 0.092
x1 = 0.5979	9.34 ± 0.16
x1 = 0.6392	17.64 ± 0.33
x1 = 0.6996	33.29 ± 0.69
x1 = 0.7333	51.5 ± 1.2
x1 = 0.7543	67.62 ± 1.8
x1 = 0.7729	84.91 ± 2.6
x1 = 0.7927	101.9 ± 3.4
x1 = 0.8108	118 ± 4.3
x1 = 0.8352	127.1 ± 4.8
x1 = 0.8549	122.8 ± 4.5
x1 = 0.8734	104.8 ± 3.5
x1 = 0.893	82.05 ± 2.4
x1 = 0.9161	61.96 ± 1.5
x1 = 0.9375	42.17 ± 0.86
x1 = 0.9497	33.73 ± 0.62
x2 = 0.005161	13.13 ± 0.17

Cc1cccc(C)c1 + CC(C)CC(C)(C)C
308.15 K, 101 kPa
Conditions	viscosity [mPa·s]
x2 = 0.0651	0.5188 ± 0.0054
x2 = 0.1364	0.5018 ± 0.0052
x2 = 0.2067	0.4888 ± 0.0051
x2 = 0.3021	0.4746 ± 0.005
x2 = 0.392	0.462 ± 0.0049
x2 = 0.4939	0.4518 ± 0.0048
x2 = 0.6007	0.4435 ± 0.0047
x2 = 0.7283	0.4385 ± 0.0047
x2 = 0.859	0.4352 ± 0.0047

Cc1cccc(C)c1 + CCCCO
308.15 K, 101 kPa
Conditions	viscosity [mPa·s]
x2 = 0.0525	0.471 ± 0.01
x2 = 0.1036	0.54 ± 0.011
x2 = 0.19	0.553 ± 0.012
x2 = 0.307	0.583 ± 0.012
x2 = 0.4171	0.631 ± 0.013
x2 = 0.5209	0.733 ± 0.015
x2 = 0.619	0.815 ± 0.017
x2 = 0.7117	0.947 ± 0.02
x2 = 0.7995	1.131 ± 0.024
x2 = 0.8828	1.323 ± 0.028
x2 = 0.9619	1.556 ± 0.032

C=O + O
viscosity [mPa·s], 101 kPa
Conditions	x1 = 0.03	x1 = 0.062	x1 = 0.13	x1 = 0.2	x1 = 0.29	x1 = 0.37
293.15 K	1.13 ± 0.03	1.26 ± 0.03	1.54 ± 0.04	1.95 ± 0.05	–	–
303.15 K	0.91 ± 0.02	1.01 ± 0.03	1.25 ± 0.03	1.54 ± 0.04	–	–
313.15 K	0.74 ± 0.02	0.82 ± 0.02	1.01 ± 0.03	1.24 ± 0.03	–	–
323.15 K	0.61 ± 0.02	0.68 ± 0.02	0.83 ± 0.02	1.01 ± 0.03	1.61 ± 0.04	2.11 ± 0.06

O=S1(=O)CCCC1 + C1COCO1
viscosity [mPa·s], 101 kPa
Conditions	303.15 K	308.15 K	313.15 K	318.15 K	323.15 K
x1 = 0.207	0.89 ± 0.09	0.85 ± 0.09	0.82 ± 0.08	0.78 ± 0.08	0.75 ± 0.08
x1 = 0.43	1.49 ± 0.15	1.39 ± 0.14	1.24 ± 0.13	1.21 ± 0.12	1.17 ± 0.12
x1 = 0.658	3.04 ± 0.31	2.53 ± 0.26	2.32 ± 0.24	2.12 ± 0.22	1.99 ± 0.2

CCCCn1cc[n+](C)c1.F[B-](F)(F)F + CN(C)C=O
101.33 kPa
Conditions	viscosity [mPa·s]
293.15 K, x1 = 0.24	8.99 ± 1.4
293.15 K, x1 = 0.83	76.67 ± 12
298.15 K, x1 = 0.335	6.371 ± 1.1
298.15 K, x1 = 0.34	8.92 ± 1.3
298.15 K, x1 = 0.3986	7.783 ± 1.2
298.15 K, x1 = 0.8976	78.41 ± 20
298.15 K, x1 = 0.94	88.43 ± 13
303.15 K, x1 = 0.43	8.05 ± 1.2
303.15 K, x1 = 0.94	74.19 ± 11
308.15 K, x1 = 0.55	9.58 ± 1.4

CCC(C)O (configuration not stated) + CO
298.15 K, 101.33 kPa
Conditions	viscosity [mPa·s]
x2 = 0.1153	2.681 ± 0.048
x2 = 0.2124	2.341 ± 0.042
x2 = 0.2972	2.063 ± 0.037
x2 = 0.3974	1.765 ± 0.032
x2 = 0.4714	1.563 ± 0.028
x2 = 0.5959	1.263 ± 0.023
x2 = 0.671	1.102 ± 0.02
x2 = 0.8045	0.852 ± 0.016
x2 = 0.8927	0.711 ± 0.014

O=S(=O)(Cl)Cl + [Cl-].[Cl-].[Cl-].[Cl-].[Sn+4]
298.15 K, 101 kPa
Conditions	viscosity [mPa·s]
x1 = 0.268	0.7739 ± 0.02
x1 = 0.563	0.7396 ± 0.019
x1 = 0.795	0.7144 ± 0.018

OC1COCOC1 + OCC(O)CO
viscosity [mPa·s], 101 kPa
Conditions	x1 = 0.0998	x1 = 0.2002	x1 = 0.3	x1 = 0.3996	x1 = 0.5003	x1 = 0.5984	x1 = 0.7011	x1 = 0.8002	x1 = 0.9
298.15 K	832.9 ± 48	733.8 ± 41	627.8 ± 33	520 ± 26	421.6 ± 19	329.6 ± 14	242.5 ± 9.2	168.5 ± 5.5	92.07 ± 2.4
308.15 K	378.7 ± 17	330.3 ± 15	278.4 ± 12	227 ± 8.9	181 ± 6.6	134.8 ± 4.6	99.8 ± 3.1	67.79 ± 2	40.63 ± 1.1
318.15 K	190 ± 7.2	163.4 ± 5.9	139 ± 4.8	110.6 ± 3.6	85.95 ± 2.8	62.08 ± 1.9	44.85 ± 1.4	32.54 ± 0.98	20.88 ± 0.6

O=S1(=O)CCCC1 + CCCCOC(C)=O
viscosity [mPa·s], 101 kPa
Conditions	x1 = 0.3402	x1 = 0.7887	x2 = 0.0164
303.15 K	–	4.275 ± 0.037	–
308.15 K	1.145 ± 0.011	–	7.925 ± 0.064

Cc1cccc(C)c1 + CCCO
viscosity [mPa·s], 100 kPa
Conditions	298.15 K	308.15 K
x2 = 0.0641	0.5986 ± 0.072	0.5469 ± 0.066
x2 = 0.125	0.604 ± 0.073	0.5561 ± 0.067
x2 = 0.2247	0.6335 ± 0.076	0.5935 ± 0.071
x2 = 0.3538	0.694 ± 0.083	0.633 ± 0.076
x2 = 0.4693	0.779 ± 0.094	0.6938 ± 0.083
x2 = 0.5733	0.888 ± 0.11	0.7826 ± 0.094
x2 = 0.6675	1.006 ± 0.12	0.8918 ± 0.11
x2 = 0.7531	1.144 ± 0.14	0.964 ± 0.12
x2 = 0.8313	1.316 ± 0.16	1.102 ± 0.13
x2 = 0.903	1.509 ± 0.18	1.277 ± 0.15
x2 = 0.969	1.796 ± 0.22	1.464 ± 0.18
